In US20250034136A1 (Nimbus Wadjet, Inc., priority 2023, published 2025):

Assays:
[1] = test system: p21 induction in HCT116 cells; assay: p21 induction in HCT116 cells; assay type: cell-based; settings: Homo sapiens, HCT-116, 24 h, HCT116 cells, 24 h compound incubation; read-out: P21_EC50
Method in brief: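 HCT116 cells, 2,000/well, treated 24 h at 37 °C with 11-point compound dilutions in duplicate. Fixed, then immunostained for p21 and GAPDH and read by near-IR imaging at 800/700 nm. Normalized to DMSO (low) and reference WRN inhibitor (high) controls; EC50 from non-linear regression.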

[2] = target: WRN (BV08), human Werner helicase (Uniprot Q14191, amino acids 517-1235 with L1074F point mutation) (Homo sapiens (Human), UniProt Q14191, L1074F); assay: WRN (BV08) ADP-Glo assay; assay type: biochemical; settings: class symbols A-E, read-out: ADP-Glo_hWRN_IC50
Sequence of WRN (BV08), human Werner helicase (Uniprot Q14191, amino acids 517-1235 with L1074F point mutation) (Q14191 other isoform, or with tags, fused parts or gaps L1074F (already in the parent)): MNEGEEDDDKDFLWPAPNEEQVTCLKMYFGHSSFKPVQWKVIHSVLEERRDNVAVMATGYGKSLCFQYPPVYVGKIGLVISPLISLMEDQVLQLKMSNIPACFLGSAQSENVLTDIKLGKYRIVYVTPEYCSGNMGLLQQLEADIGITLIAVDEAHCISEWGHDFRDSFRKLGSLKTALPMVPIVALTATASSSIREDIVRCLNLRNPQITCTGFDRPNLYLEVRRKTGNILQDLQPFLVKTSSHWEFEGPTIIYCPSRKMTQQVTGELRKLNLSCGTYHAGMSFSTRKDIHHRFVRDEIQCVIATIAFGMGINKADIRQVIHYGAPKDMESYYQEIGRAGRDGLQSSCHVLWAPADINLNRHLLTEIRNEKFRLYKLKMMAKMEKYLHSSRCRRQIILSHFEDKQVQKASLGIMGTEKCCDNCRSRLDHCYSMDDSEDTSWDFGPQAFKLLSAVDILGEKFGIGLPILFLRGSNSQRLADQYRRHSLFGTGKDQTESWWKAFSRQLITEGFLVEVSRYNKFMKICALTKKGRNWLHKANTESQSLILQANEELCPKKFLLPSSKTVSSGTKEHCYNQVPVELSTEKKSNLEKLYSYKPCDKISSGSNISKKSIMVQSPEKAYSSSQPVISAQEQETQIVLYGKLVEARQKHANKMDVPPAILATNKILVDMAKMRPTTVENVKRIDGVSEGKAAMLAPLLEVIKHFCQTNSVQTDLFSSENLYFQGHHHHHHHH

## CCc1c(N2CCN(C(=O)c3ncnc(C)c3O)[C@H]3CC[C@@H]32)c(=O)c2nc(N(C)[C@H]3CC[C@@H](O)C3)cnc2n1CC(=O)Nc1ccc(C(F)(F)F)cc1Cl [I-302, N-[2-chloro-4-(trifluoromethyl)phenyl]-2-{6-ethyl-7-[(1S,6S)-5-(5-hydroxy-6-methylpyrimidine-4-carbonyl)-2,5-diazabicyclo[4.2.0]octan-2-yl]-2-{[(1S,3R)-3-hydroxycyclopentyl](methyl)amino}-8-oxo-5H,8H-pyrido[2,3-b]pyrazin-5-yl}acetamide]
[1]
  EC50: < 500 nM
[2]
  IC50: 5 to 50 nM
